Experiment [1] has as its target Mu-type opioid receptor (Homo sapiens, UniProt P35372). The experiment in a line: biochemical. The experiment is classed as functional.
Experiment [2] addresses T1, Peroxisome proliferator-activated receptor gamma (Homo sapiens, UniProt P37231).
T1 sequence (P37231 whole entry): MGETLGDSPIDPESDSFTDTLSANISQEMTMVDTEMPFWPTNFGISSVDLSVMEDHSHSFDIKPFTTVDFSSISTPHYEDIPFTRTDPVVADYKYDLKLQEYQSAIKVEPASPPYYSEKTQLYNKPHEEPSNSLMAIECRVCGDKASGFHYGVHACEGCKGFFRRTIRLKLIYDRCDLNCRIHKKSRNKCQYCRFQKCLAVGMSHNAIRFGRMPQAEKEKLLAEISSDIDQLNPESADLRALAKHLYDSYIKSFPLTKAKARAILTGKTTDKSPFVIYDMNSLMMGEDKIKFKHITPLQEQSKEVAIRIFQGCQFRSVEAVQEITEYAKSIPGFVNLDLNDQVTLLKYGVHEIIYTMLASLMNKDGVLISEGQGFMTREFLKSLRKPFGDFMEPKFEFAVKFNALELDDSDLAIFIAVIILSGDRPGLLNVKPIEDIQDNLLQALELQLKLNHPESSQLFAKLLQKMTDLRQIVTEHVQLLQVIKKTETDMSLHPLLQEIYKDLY
The class given is functional.

Experiment [3] concerns the target T2, Alpha-1A adrenergic receptor (Homo sapiens, UniProt P35348).
T2 sequence (P35348 whole entry): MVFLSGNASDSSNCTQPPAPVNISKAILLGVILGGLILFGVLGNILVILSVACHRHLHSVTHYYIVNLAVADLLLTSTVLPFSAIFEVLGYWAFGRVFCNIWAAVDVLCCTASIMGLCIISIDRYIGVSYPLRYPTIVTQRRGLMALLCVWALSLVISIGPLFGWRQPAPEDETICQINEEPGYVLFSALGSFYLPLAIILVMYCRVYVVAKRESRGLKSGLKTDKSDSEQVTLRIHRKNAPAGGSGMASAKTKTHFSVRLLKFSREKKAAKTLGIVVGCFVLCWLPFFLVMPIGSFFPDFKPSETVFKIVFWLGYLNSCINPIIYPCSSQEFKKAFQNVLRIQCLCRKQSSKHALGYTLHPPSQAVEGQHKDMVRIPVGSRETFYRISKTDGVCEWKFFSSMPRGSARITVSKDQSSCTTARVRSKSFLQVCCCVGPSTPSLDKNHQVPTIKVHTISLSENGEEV

Experiment [4] has as its target Melanocortin receptor 4 (Homo sapiens, UniProt P32245).
For experiment [5], the target named is T3, Neuropeptide Y receptor type 2 (Homo sapiens, UniProt P49146).
T3 sequence (P49146 whole entry): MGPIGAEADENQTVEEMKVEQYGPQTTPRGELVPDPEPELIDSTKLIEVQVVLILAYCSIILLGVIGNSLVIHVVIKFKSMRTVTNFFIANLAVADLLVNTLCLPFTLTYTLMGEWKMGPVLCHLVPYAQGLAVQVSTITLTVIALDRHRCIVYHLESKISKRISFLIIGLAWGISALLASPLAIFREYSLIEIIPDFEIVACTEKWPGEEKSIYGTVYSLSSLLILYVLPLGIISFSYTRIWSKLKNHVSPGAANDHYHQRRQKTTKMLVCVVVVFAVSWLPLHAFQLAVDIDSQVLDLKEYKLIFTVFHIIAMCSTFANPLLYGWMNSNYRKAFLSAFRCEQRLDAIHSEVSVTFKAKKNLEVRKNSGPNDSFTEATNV

Experiment [6] addresses T4, Progesterone receptor (Homo sapiens, UniProt P06401).
T4 sequence (P06401 whole entry): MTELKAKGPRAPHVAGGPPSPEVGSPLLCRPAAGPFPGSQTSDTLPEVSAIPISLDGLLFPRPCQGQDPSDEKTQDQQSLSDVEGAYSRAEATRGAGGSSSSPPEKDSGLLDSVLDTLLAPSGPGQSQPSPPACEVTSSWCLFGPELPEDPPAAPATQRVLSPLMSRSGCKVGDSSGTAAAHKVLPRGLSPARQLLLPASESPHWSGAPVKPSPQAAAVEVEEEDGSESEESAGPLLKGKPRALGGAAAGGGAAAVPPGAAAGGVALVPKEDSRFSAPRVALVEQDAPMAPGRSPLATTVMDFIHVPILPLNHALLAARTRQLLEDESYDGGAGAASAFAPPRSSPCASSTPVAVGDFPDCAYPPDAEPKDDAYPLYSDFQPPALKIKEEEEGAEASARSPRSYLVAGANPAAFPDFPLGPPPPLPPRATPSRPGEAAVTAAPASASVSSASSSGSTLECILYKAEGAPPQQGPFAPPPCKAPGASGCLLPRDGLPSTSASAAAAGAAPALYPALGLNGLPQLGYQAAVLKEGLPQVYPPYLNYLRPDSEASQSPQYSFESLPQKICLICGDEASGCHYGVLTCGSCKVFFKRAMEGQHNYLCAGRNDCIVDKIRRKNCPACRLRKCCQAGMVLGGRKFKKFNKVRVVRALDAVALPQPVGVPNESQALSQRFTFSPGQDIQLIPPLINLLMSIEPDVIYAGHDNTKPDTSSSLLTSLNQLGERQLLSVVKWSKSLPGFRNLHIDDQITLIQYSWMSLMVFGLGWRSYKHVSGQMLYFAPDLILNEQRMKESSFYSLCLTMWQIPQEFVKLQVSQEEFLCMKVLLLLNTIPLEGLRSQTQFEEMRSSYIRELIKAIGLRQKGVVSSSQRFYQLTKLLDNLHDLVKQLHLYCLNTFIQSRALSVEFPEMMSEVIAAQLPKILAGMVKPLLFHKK

For experiment [7], the target named is T5, Endothelin receptor type B (Homo sapiens, UniProt P24530).
T5 sequence (P24530 whole entry): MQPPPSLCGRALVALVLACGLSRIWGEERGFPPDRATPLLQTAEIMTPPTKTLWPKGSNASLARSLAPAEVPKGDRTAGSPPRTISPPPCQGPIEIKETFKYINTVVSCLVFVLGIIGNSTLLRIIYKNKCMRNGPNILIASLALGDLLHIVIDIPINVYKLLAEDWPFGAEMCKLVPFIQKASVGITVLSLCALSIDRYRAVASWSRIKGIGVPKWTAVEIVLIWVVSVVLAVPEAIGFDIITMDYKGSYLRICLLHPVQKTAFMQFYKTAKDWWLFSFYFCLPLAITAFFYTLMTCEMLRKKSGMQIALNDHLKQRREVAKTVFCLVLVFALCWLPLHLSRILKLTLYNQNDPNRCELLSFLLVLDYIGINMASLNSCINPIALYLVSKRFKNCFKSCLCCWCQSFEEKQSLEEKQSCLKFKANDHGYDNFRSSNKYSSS
Also: assay procedure not described here.

Sequence of Melanocortin receptor 4 (P32245 whole entry): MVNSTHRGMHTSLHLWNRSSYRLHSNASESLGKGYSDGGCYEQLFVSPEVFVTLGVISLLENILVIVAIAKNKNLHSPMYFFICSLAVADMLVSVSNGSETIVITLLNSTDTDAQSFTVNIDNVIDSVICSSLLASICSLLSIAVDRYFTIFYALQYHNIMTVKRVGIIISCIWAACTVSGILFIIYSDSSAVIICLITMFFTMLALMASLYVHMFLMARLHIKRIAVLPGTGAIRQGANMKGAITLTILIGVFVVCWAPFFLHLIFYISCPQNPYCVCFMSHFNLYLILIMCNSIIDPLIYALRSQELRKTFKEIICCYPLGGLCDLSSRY
Sequence of Mu-type opioid receptor (P35372 whole entry): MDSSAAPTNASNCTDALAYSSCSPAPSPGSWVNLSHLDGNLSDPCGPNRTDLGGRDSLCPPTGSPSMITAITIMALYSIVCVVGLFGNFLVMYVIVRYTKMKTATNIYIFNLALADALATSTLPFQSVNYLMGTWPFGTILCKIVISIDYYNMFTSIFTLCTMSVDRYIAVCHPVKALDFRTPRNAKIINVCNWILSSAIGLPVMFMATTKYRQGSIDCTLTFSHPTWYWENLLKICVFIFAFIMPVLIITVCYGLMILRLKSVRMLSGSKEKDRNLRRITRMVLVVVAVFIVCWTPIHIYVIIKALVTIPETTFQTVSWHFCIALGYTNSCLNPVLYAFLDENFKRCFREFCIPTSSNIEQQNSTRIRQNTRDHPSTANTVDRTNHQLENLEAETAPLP

On to `Cc1nnc(SCC2=C(C(=O)O)N3C(=O)[C@@H](NC(=O)Cn4cnnn4)[C@H]3SC2)s1` [CEFAZOLIN], for which the AC50 – broadly, the concentration giving half of the maximal activity seen – in experiment [1] is greater than 30 µM; in experiment [2], greater than 300 µM.

In experiment [1], `CC(C)C[C@H](NC(=O)[C@@H](O)[C@H](N)Cc1ccccc1)C(=O)O` [UBENIMEX] showed an AC50 greater than 30 µM.

For `Cc1ccc(C)c(OCCCC(C)(C)C(=O)O)c1` [GEMFIBROZIL], the concentration at half-maximal activity (AC50) was greater than 10 µM in experiment [3]; greater than 30 µM in experiment [4]; greater than 30 µM in experiment [5]; greater than 30 µM in experiment [6]; greater than 30 µM in experiment [7].

For the compound `O=C(O)Cc1ccccc1Nc1c(Cl)cccc1Cl` [DICLOFENAC], the AC50 in experiment [3] is greater than 10 µM; in experiment [4], greater than 30 µM; in experiment [5] it was greater than 30 µM; in experiment [6], greater than 30 µM; in experiment [7], greater than 30 µM.

With `CC[C@H](C)C(=O)O[C@H]1C[C@@H](C)C=C2C=C[C@H](C)[C@H](CC[C@@H]3C[C@@H](O)CC(=O)O3)[C@H]21` [LOVASTATIN], the AC50 in experiment [3] was greater than 10 µM; in experiment [4] it was greater than 30 µM; in experiment [5] it was greater than 30 µM; in experiment [6], 29.7 µM; in experiment [7], greater than 30 µM.

Consider `CC(C)[C@H](N)C(=O)OCCOCn1cnc2c(=O)[nH]c(N)nc21` [VALACYCLOVIR], for which the AC50 is greater than 10 µM in experiment [3]; greater than 30 µM in experiment [4]; greater than 30 µM in experiment [5]; greater than 30 µM in experiment [6]; greater than 30 µM in experiment [7].

For the compound `O=C1Cc2cc(CCN3CCN(c4nsc5ccccc45)CC3)c(Cl)cc2N1` [ZIPRASIDONE], the half-maximal activity concentration (AC50) in experiment [3] is 0.0317 µM; in experiment [4] it was greater than 30 µM; in experiment [5], greater than 30 µM; in experiment [6] it was 21.8 µM; in experiment [7], greater than 30 µM.

`CC=CC1=C(C(=O)O)N2C(=O)[C@@H](NC(=O)[C@H](N)c3ccc(O)cc3)[C@H]2SC1` [CEFPROZIL]: the AC50 in experiment [1] and in experiment [4] was greater than 30 µM each time.

Take `Cc1nc(Nc2ncc(C(=O)Nc3c(C)cccc3Cl)s2)cc(N2CCN(CCO)CC2)n1` [DASATINIB]: the AC50 in experiment [3] was greater than 10 µM; in experiment [4], greater than 30 µM; in experiment [5], greater than 10 µM; in experiment [6] it was greater than 30 µM; in experiment [7], greater than 10 µM.

In the case of `CC1(C)S[C@@H]2[C@H](NC(=O)C(C(=O)O)c3ccccc3)C(=O)N2[C@H]1C(=O)O` (some centres not stated) [CARBENICILLIN], the AC50 in experiment [1] and in experiment [2] was greater than 30 µM each time.

As to `Clc1ccc(Cn2c(CN3CCCC3)nc3ccccc32)cc1` [CLEMIZOLE], the AC50 in experiment [2] is greater than 30 µM.

As to `CC(C)NC(=N)NC(=N)Nc1ccc(Cl)c(Cl)c1` [CHLORPROGUANIL], the concentration at half-maximal activity (AC50) in experiment [1] is greater than 30 µM.

For the compound `CCCNC(=O)NS(=O)(=O)c1ccc(Cl)cc1` [CHLORPROPAMIDE], the AC50 in experiment [4], in experiment [5], in experiment [6] and in experiment [7] was greater than 30 µM each time.

Take `CN(CCOc1ccc(CC2SC(=O)NC2=O)cc1)c1ccccn1` (configuration not stated) [ROSIGLITAZONE]: the AC50 in experiment [3] was greater than 10 µM; in experiment [1], greater than 30 µM; in experiment [4] it was 23.7 µM; in experiment [5], greater than 30 µM; in experiment [6], greater than 30 µM; in experiment [7] it was greater than 30 µM.

Compound `CC(C(=O)O)c1ccc2oc(-c3ccc(Cl)cc3)nc2c1` (configuration not stated) [BENOXAPROFEN] yielded a half-maximal activity concentration (AC50) in experiment [1] greater than 30 µM.

For the compound `CC(CN1c2ccccc2Sc2ccccc21)N(C)C` (configuration not stated) [PROMETHAZINE], the AC50 in experiment [3] was 0.162 µM; in experiment [4], 25 µM; in experiment [5], greater than 30 µM; in experiment [6], greater than 30 µM; in experiment [7], greater than 30 µM.

As to `CNC[C@H](O)c1ccc(O)c(O)c1` [EPINEPHRINE], the AC50 in experiment [2] is greater than 30 µM.

Compound `CC(=O)Nc1ccc(CC(=O)O)cc1` [ACTARIT] registered an AC50 in experiment [1] greater than 30 µM.

Turning to `CCCCCCCN(CC)CCCC(O)c1ccc(NS(C)(=O)=O)cc1` (configuration not stated) [IBUTILIDE], in experiment [1], the AC50 is greater than 30 µM.

As for `O=C(O)Cc1ccccc1Oc1ccc(Cl)cc1Cl` [FENCLOFENAC], the AC50 was greater than 10 µM in experiment [3]; greater than 30 µM in experiment [4]; greater than 30 µM in experiment [5]; greater than 30 µM in experiment [6]; greater than 30 µM in experiment [7].

In experiment [2], `S=P(N1CC1)(N1CC1)N1CC1` [THIOTEPA] had an AC50 greater than 30 µM.

Consider `CNC(=C[N+](=O)[O-])NCCSCc1csc(CN(C)C)n1` [NIZATIDINE], for which the AC50 in experiment [1] is greater than 30 µM; in experiment [4], greater than 10 µM.

Regarding `CC[C@@H](CO)NC(=O)[C@@H]1C=C2c3cccc4c3c(cn4C)C[C@H]2N(C)C1` [METHYSERGIDE], the AC50 in experiment [4] is greater than 30 µM; in experiment [5], greater than 30 µM; in experiment [6] it was 16 µM; in experiment [7], greater than 30 µM.

In experiment [1], `C[N+](C)(C)CCOP(=O)(O)OP(=O)([O-])OC[C@H]1O[C@@H](n2ccc(N)nc2=O)[C@H](O)[C@@H]1O` [CITICOLINE] gave an AC50 greater than 30 µM.

`COc1cc(C(=O)NS(=O)(=O)c2ccccc2C)ccc1Cc1cn(C)c2ccc(NC(=O)OC3CCCC3)cc12` [ZAFIRLUKAST] came in with an AC50 in experiment [4] greater than 10 µM.

As for `CCOc1cc([C@@H](CS(C)(=O)=O)N2C(=O)c3cccc(NC(C)=O)c3C2=O)ccc1OC`, the AC50 in experiment [2] is greater than 30 µM.

The compound `Cc1onc(-c2c(F)cccc2Cl)c1C(=O)N[C@@H]1C(=O)N2[C@@H]1SC(C)(C)[C@@H]2C(=O)O` [FLOXACILLIN] displayed a half-maximal activity concentration (AC50) in experiment [2] greater than 30 µM.

In experiment [1], `CN1Cc2c(N)cccc2C(c2ccccc2)C1` (configuration not stated) [NOMIFENSINE] came in with a half-maximal activity concentration (AC50) of 1.4 µM. That is a single-digit micromolar value.

In experiment [4], `CCCc1cc(=O)[nH]c(=S)[nH]1` [PROPYLTHIOURACIL] returned an AC50 greater than 10 µM.

In experiment [1], `Cn1cc(C(=O)[C@@H]2CCc3nc[nH]c3C2)c2ccccc21` [RAMOSETRON] returned a half-maximal activity concentration (AC50) greater than 30 µM.

The values are drawn from ChEMBL document CHEMBL5291721, “A preclinical secondary pharmacology resource illuminates target-adverse drug reaction associations of marketed drugs” (Nat Commun, 2023).
